Laboratory results: patent US9547009B2, “Benzocyclooctyne compounds and uses thereof” (Academia Sinica, priority 2012, dated 2017)
Blank lines part the entries; values can stand above or below the molecule they belong to.

Assays:
[1] = Photophysical properties of Compound 1 and its benzyl azide triazole regioisomers 3a/3b; type: physicochemical; settings: for extinction coefficient relative to Compound 1: at λmax 330 nm; for fluorescence emission λmax: upon irradiation
Excerpt: In one embodiment, Compound 1 reacted with benzyl azide in ethanol/water (1:1) in the absence of copper(I) catalyst to afford the cycloaddition product as a mixture of two triazole reigoisomers 3a and 3b. These two trizaole isomers were separated, and their photophysical properties were investigated, respectively. […] The quantum yields of triazole compounds 3a (Φf=0.23) and 3b (Φf=0.22) were 20-fold higher than Compound 1 (Φf=0.011).

[2] = Absorption/fluorescence spectroscopy and quantum yield under simulated physiological conditions (10% DMSO in PBS); type: physicochemical; settings: excitation at 330 nm, PBS buffer containing 10% DMSO, pH 7.4, 37° C.; for quantum yield Φf: quinine sulfate standard
Experimental: All spectroscopic measurements of Compound 1 and the triazole products 1-A and 1-B were performed in a mixture of 10% DMSO in PBS buffer (FIG. 11). UV-vis spectra and fluorescence spectra were recorded on a Molecular Devices Spectramax M5 spectrometer. For each experiment, the absorbance spectra were measured within an absorbance range of 0.07 to 0.7 (l=[…]). Quantum yields were determined from the slope of the integrated fluorescence emission between 360 and 550 nm (excitation at 330 nm) versus absorbance using quinine sulfate (Φf=0.54±0.0 3)[^S3] as fluorescence standard. The quantum yield was calculated as an average of 4 points according to the following equation: Φsample=Φstandard(Astandard/Asample)(Fsample/Fstandard)(nsample/nstandard)^2 where “Φ” is the quantum yield, “A” is the absorbance at the excitation frequency, “F” is the area under the emission curve, and “n” is the refractive index of the solvent.
Formation of triazoles 1-A and 1-B were accompanied by a significant increase in fluorescence intensity with a large Stokes shift into a standard range for coumarin emission (FIG. 8a).

[3] = SPAAC kinetics with benzyl azide monitored by 1H-NMR; settings: CD3CN, 25° C.
Experimental: The cycloaddition of compound 1 with benzyl azide was a second-order reaction. […] The second-order rate constant (k) was determined to be 0.015 M^−1s^−1 at 25° C. […] (Agard, et al., J. Am. Chem. Soc. 2004, 126, 15046; Ning, et al., Angew. Chem. Int. Ed. 2008, 47, 2253).
(§1) Experiment I: Compound 1 and benzyl azide were predissolved in CD3CN, and then mixed at equimolar concentration of 20 mM. The reaction was monitored by ^1H-NMR analysis over a period of 1 h. The concentration of each component was determined, based on the concentration of initial compound 1, by integration at multiple chemical shifts in the ^1H-NMR spectrum. By plotting 1/[1](M^−1) vs. time (sec), a second order rate constant in unit of M^−1s^−1 was determined using linear regression analysis. This procedure was repeated 3 times with a concentrated of 20 mM to afford a rate constant of 0.012 M^−1s^−1 at 25° C. (FIG. 4B).

[4] = SPAAC kinetics with N-azidoacetylmannosamine monitored by 1H-NMR; settings: CD3OD/D2O (5:1, v/v), equimolar 20 mM, 25° C.
Experimental: as §1, with “II:” for “I:”, “N-azidoacetylmannosamine” for “benzyl azide”, “CD3OD/D2O (5:1, v/v),” for “CD3CN,”, “0.010” for “0.012”, “11).” for “4B).”

[5] = Time course of ligation with ManNAz by fluorescence spectroscopy; settings: emission 435 nm, excitation 330 nm; 10% DMSO in PBS, 37° C.
Experimental: To probe the SPAAC reaction under the conditions that would be more typical for biomolecule labeling, the fluorescence response and time course for the reaction of Compound 1 with N-azidoacetylmannosamine (ManNAz) were investigated.
A solution of Compound 1 ([…]) and N-azidoacetylmannosamine (15 μmol) in a mixture of 10% DMSO in PBS buffer (2.5 mL) was incubated at 37° C. The fluorescence emission intensity at 435 nm upon excitation at 330 nm was monitored in 5 min intervals. For each point the fluorescence intensity was measured over a period of 5 sec and averaged over a total of 3 points. In a control experiment the same conditions were used except that N-acetylmannosamine (15 μmol) was added to the solution.

CL1-5 cells = assay: Fluorescence labeling of azido-glycoconjugates in live cells (time-lapse and confocal microscopy); type: cell-based
Experimental: To observe the fluorescence labeled azido-glycoconjugates in cells, CL1-5 cells (a lung cancer cell line) were seeded on chamber slide (2.5×10^4 cells/0.5 mL per wells) and incubated in culture medium (RPMI-1640 supplemented with 10% FBS, 100 U/mL penicillin, 100 μg/mL streptomycin, 1 mM L-glutamine and 1 mM sodium pyruvate) with either 200 μM control sugar (peracetylated N-acetylmannosamine, Ac4ManNAc) or azido-sugar (peracetylated azido-N-acetylmannosamine, Ac4ManNAz) for 3 days.
For Time-lapse imaging of live cells, experiments were carried out using a confocal microscope (TCS-SP5-MP-SMD, Leica) equipped with an incubator to keep the cells in culture conditions. Prewashed cells were incubated with 100 μM compound 1 in PBS buffer with 10% DMSO and images of cell were acquired at 450 nm emission and in 5-min intervals.
For comparing the localization of azido-glycans, probe-labeled cells were washed with PBS, fixed with 3% paraformaldehyde in PBS at room temperature for 20 min, permeablized with 0.2% Triton X-100 in PBS at room temperature for 20 min, and blocked with 3% bovine serum albumin in PBS at room temperature for 30 min. Cells were stained with fluorescein conjugated WGA lectin for Golgi, and propidium iodide (PI) for nucleus (FIG. 12).
Performance of Compound 1 in live cell imaging was investigated. Highly invasive lung cancer cells, CL1-5, were cultured in the presence of peracetylated azido-N-acetylmannosamine (Ac4ManNAz, 200 μM) for 3 days to metabolically produce the azido-sialic acid expressed cells. As a negative control, CL1-5 cells were grown in the presence of peracetylated N-acetylmannosamine (Ac4ManNAc, 200 μM). A time course experiment was conducted by treating 100 μM of Compound 1 (once) and conducted by exposing the cells at 5-min intervals under no-wash and no-fixation conditions (FIG. 8 and FIG. 12). […] Furthermore, the localization of azido-containing glycoconjugates in living cells was visualized by confocal microscopy. The cells labeled by Compound 1 were subsequently stained with fluorescein-conjugated WGA lectin (a Golgi marker) and propidium iodide (PI, a nucleus marker).

[6] = Photophysical properties of alkynyl coumarin-indolium compound C and its CuAAC triazole product 18; type: physicochemical; settings: 18: in aqueous solution; for extinction coefficient ε: at λmax 500 nm

Structure (SMILES): O=c1ccc2cc3c(cc2o1)C#CCCCC3 [Compound 1, 10,11-Dehydro-6,7,8,9-tetrahydro-cycloocta[g]chromen-2-one]
- absorption band λmax [1]: 330 nm
- quantum yield Φf [1]: 0.011
- fluorescence emission λmax [1]: 400 nm
- fluorescence emission band [2]: 405 nm
- quantum yield Φf [2]: 0.011
- second order rate constant ([3]; benzyl azide, equimolar 20 mM, repeated 3 times): 0.012 M⁻¹ s⁻¹
- second-order rate constant (k) ([3]; cycloaddition with benzyl azide, 19 mM): 0.015 M⁻¹ s⁻¹
- second order rate constant [4]: 0.010 M⁻¹ s⁻¹
- time until fluorescence intensity reached a plateau [5]: less than 1 h
- fluorescence of Ac4ManNAz treated cells (CL1-5 cells; 100 μM probe, 5-min intervals, no-wash, no-fixation): time-dependent increase of fluorescence intensity
- fluorescence of control cells (background labeling) (CL1-5 cells; 100 μM probe, CL1-5 cells grown with 200 μM Ac4ManNAc): almost no fluorescence staining
- time until cell labeling complete (CL1-5 cells; 100 μM probe, CL1-5 cells pre-treated with 200 μM Ac4ManNAz for 3 days, no-wash, no-fixation): 1.5 h
- localization of probe-labeled sialylated glycans (CL1-5 cells; confocal microscopy, co-staining with fluorescein-WGA lectin (Golgi) and propidium iodide (nucleus)): partially co-localized with Golgi apparatus staining, but not with nucleus staining

Structure (SMILES): C#Cc1ccc2cc(/C=C/C3=[N+](CCCCS(=O)(=O)[O-])c4ccccc4C3(C)C)c(=O)oc2c1 [Compound C, (E)-7-ethynyl-3-[N-(4-sulfonatobutyl)-3,3-dimethyl-3H-indolium-2-yl]ethenyl-2H-chromen-2-one]
- absorption λmax [6]: 500 nm
- fluorescence quantum yield Φf [6]: 0.017
- fluorescence λmax [6]: 515 nm
- extinction coefficient ε [6]: 8,600 M^−1 cm^−1

Structure (SMILES): O=C(Cn1nnc2c1CCCCc1cc3ccc(=O)oc3cc1-2)NC1C(O)OC(CO)[C@@H](O)C1O (stereo partly drawn) [Compound 1-B, N-[2-(11-Oxo-4,6,7,11-tetrahydrochromeno[7′,6′:3,4]cycloocta[1,2-d][1,2,3]triazol-3 (5H)-yl)]acetamido-2-deoxy-α,β-D-mannopyranose]
- fluorescence emission band [2]: 435 nm
- quantum yield Φf [2]: 0.21

Structure (SMILES): CC1(C)C(/C=C/c2cc3ccc(-c4cn(Cc5ccccc5)nn4)cc3oc2=O)=[N+](CCCCS(=O)(=O)[O-])c2ccccc21 [Compound 18]
- absorption λmax [6]: 500 nm
- fluorescence quantum yield Φf [6]: 0.56
- fluorescence λmax [6]: 520 nm
- extinction coefficient ε [6]: 32,000 M^−1 cm^−1

Structure (SMILES): O=c1ccc2cc3c(cc2o1)-c1nnn(Cc2ccccc2)c1CCCC3 [Compound 1-A, 10-Benzyl-6,7,8,9-tetrahydro-cyclooctatriazolo[5,4-g]chromen-2 (2H)-one]
- fluorescence emission band [2]: 435 nm
- quantum yield Φf [2]: 0.23

Other lines, results leading:

- absorption band λmax [1]: 330 nm
- quantum yield relative to Compound 1 [1]: 20 fold
- quantum yield Φf [1]: 0.22
- extinction coefficient relative to Compound 1 [1]: ~2.5 fold
- fluorescence emission λmax [1]: 400 nm
Structure (SMILES): O=c1ccc2cc3c(cc2o1)-c1c(nnn1Cc1ccccc1)CCCC3 [Compound 3b]

- absorption band λmax [1]: 330 nm
- quantum yield relative to Compound 1 [1]: 20 fold
- quantum yield Φf [1]: 0.23
- extinction coefficient relative to Compound 1 [1]: ~2.5 fold
- fluorescence emission λmax [1]: 400 nm
Structure (SMILES): O=c1ccc2cc3c(cc2o1)-c1nnn(Cc2ccccc2)c1CCCC3 [Compound 3a]
